These results are taken from ChEMBL document CHEMBL1201862, “PubChem BioAssay data set” (2004).

What all share (assay): DTP human tumour cell line panel, 48 h
Assay [1] has as its system MOLT-4.
For assay [2], the system named is BT-549.
In assay [3] the test system is HT-29.
The subject of assay [4] is HCC 2998.
Assay [5] concerns NCI-H460.
In assay [6] the test system is NCI/ADR-RES.
The subject of assay [7] is HCT-15.
The subject of assay [8] is OVCAR-5.
Assay [9] concerns U-251.
Assay [10] concerns K562.
Assay [11] relates to MDA-MB-231.
The subject of assay [12] is UACC-62.
Assay [13] concerns RPMI-8226.
In assay [14] the test system is OVCAR-8.
Assay [15] relates to SW-620.
In assay [16] the test system is 786-0.
Assay [17] deals with Hs-578T.

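Protocol summary: plate cells (96-well), add compound at 5 concentrations, incubate 48 h, interpolate endpoints linearly. Here, GI50 denotes the concentration required for 50% inhibition of growth.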 Calls of active or inactive are those of the source. No stated cut-off is given here; in the data, active = GI50 up to about 1.1 µM and inactive = higher.

The term GI50 denotes the concentration that inhibits growth by half. With `Cc1ccc(-c2cs/c(=N\c3ccccc3)n2NC(=O)c2ccncc2)cc1`, the GI50 in assay [1] is 26.4 µM (inactive); in assay [2] it was 30.8 µM (inactive); in assay [3], 21 µM (inactive); in [4], 75.2 µM (inactive); in assay [5], 36.3 µM (inactive); in assay [6], 28.3 µM (inactive). Also, the GI50 in assay [7] is 42.5 µM; in assay [8], 40.8 µM (inactive); in [9], 19.1 µM (inactive); in [10], 15 µM (inactive); in assay [11], 51.5 µM (inactive); in assay [12], 20.5 µM (inactive). For the same compound, the GI50 was 22.6 µM (inactive) in assay [13]; 25.8 µM (inactive) in assay [14]; 35.8 µM (inactive) in assay [15]; 48 µM (inactive) in assay [16]; 57.5 µM (inactive) in assay [17].
In the case of `OCc1cc2c([nH]c3ccccc32)c(C(O)CO)n1` (centres undefined), the GI50 in assay [1], in assay [2], in [3], in [4], in assay [5] and in assay [6] was > 100 µM (inactive) in each case. The GI50 is above 100 µM in [7]; > 100 µM (inactive) in [8]; > 100 µM (inactive) in assay [9]; > 100 µM (inactive) in assay [10]; > 100 µM (inactive) in assay [11]; > 100 µM (inactive) in assay [12]. Also, the GI50 in [13], in assay [14], in assay [15], in assay [16] and in assay [17] was > 100 µM (inactive) in each case.
For the compound `CCOC(=O)c1cc2c3ccn(Cc4ccccc4)c3c3c(C)noc3c2[nH]1`, the GI50 was > 100 µM (inactive) in assay [1]; > 100 µM (inactive) in [2]; > 100 µM (inactive) in assay [4]; > 100 µM (inactive) in assay [5]; > 100 µM (inactive) in assay [6]; above 100 µM in [7]. For the same compound, the GI50 in [8], in assay [9], in assay [10], in [11], in assay [12] and in assay [13] was > 100 µM (inactive) in each case. The GI50 in [14], in assay [15], in [16] and in assay [17] was > 100 µM (inactive) in each case.
Consider `COc1cccc2c1-c1c(OC)cccc1SS2`, for which the GI50 is 13.4 µM (inactive) in [1]; 27.6 µM (inactive) in assay [2]; 17.3 µM (inactive) in assay [3]; 20.9 µM (inactive) in [4]; 18.2 µM (inactive) in assay [5]; 36.6 µM (inactive) in [6]. In addition, the GI50 in [7] was 13.4 µM; in assay [8], 17.8 µM (inactive); in assay [9], 15.7 µM (inactive); in assay [10], 27.5 µM (inactive); in assay [11], 23.7 µM (inactive); in assay [12], 20.1 µM (inactive). Further, the GI50 in assay [13] is 11.4 µM (inactive); in assay [14] it was 25.9 µM (inactive); in assay [15], 20.4 µM (inactive); in assay [16] it was 18.2 µM (inactive); in assay [17], 26.1 µM (inactive).
For the compound `C=CCOc1ccc(C(=N/NC(=O)c2ccccc2)/N=N/c2ccc(C)cc2)cc1OC`, the GI50 was 26.5 µM (inactive) in assay [1]; 18.3 µM (inactive) in [2]; 20.3 µM (inactive) in assay [3]; 18.7 µM (inactive) in assay [4]; 18.4 µM (inactive) in assay [5]; 35.7 µM (inactive) in assay [6]. The GI50 in assay [7] was 35.1 µM; in [8], 42.6 µM (inactive); in [9] it was 10.4 µM (inactive); in assay [11], 24.4 µM (inactive); in assay [12], 14.3 µM (inactive); in assay [14], 25.4 µM (inactive). In addition, the GI50 in [15] is 31.4 µM (inactive); in assay [16], 33.9 µM (inactive); in assay [17], 23.4 µM (inactive).
On to `O=C(Nc1ccc(Cl)cc1)c1cc(S(=O)(=O)Nc2n[nH]c(=O)[nH]2)c(SSc2cc(Cl)c(C(=O)Nc3ccc(Cl)cc3)cc2S(=O)(=O)Nc2n[nH]c(=O)[nH]2)cc1Cl`, for which the GI50 in assay [1], in assay [2], in assay [3], in assay [4], in assay [5] and in assay [6] was > 100 µM (inactive) throughout. The GI50 is above 100 µM in assay [7]; > 100 µM (inactive) in [8]; > 100 µM (inactive) in assay [9]; > 100 µM (inactive) in assay [10]; > 100 µM (inactive) in [11]; > 100 µM (inactive) in [12]. Moreover, the GI50 in assay [13], in assay [14], in [15], in assay [16] and in assay [17] was > 100 µM (inactive) throughout.
In the case of `COc1cc2c(cc1O)C1Cc3ccc(OC)c(O)c3C(C2)N1C` (centres undefined), the GI50 in assay [1] is 58.1 µM (inactive); in assay [2] it was > 100 µM (inactive); in assay [3], 71 µM (inactive); in [4], > 100 µM (inactive); in assay [5] it was 94 µM (inactive); in [6], > 100 µM (inactive). Besides, the GI50 was above 100 µM in assay [7]; > 100 µM (inactive) in assay [8]; > 100 µM (inactive) in assay [9]; 41.5 µM (inactive) in assay [11]; > 100 µM (inactive) in assay [12]; > 100 µM (inactive) in [13]. Also, the GI50 in assay [14] was > 100 µM (inactive); in assay [15], > 100 µM (inactive); in assay [16] it was > 100 µM (inactive); in assay [17], 42.8 µM (inactive).
In the case of `CCOP(=O)(OCC)OC1c2[nH]ccc2-c2cc(C(=O)OC)[nH]c2C1OC` (centres undefined), the GI50 in [1] was > 100 µM (inactive); in assay [2] it was 36.5 µM (inactive); in assay [3] it was > 100 µM (inactive); in assay [4], > 100 µM (inactive); in assay [5] it was 56.8 µM (inactive); in [6], > 100 µM (inactive). The GI50 is 59.3 µM in assay [7]; > 100 µM (inactive) in [8]; > 100 µM (inactive) in [9]; > 100 µM (inactive) in [10]; 31.6 µM (inactive) in [11]; 45.8 µM (inactive) in [12]. The GI50 in assay [14] was > 100 µM (inactive); in assay [15] it was > 100 µM (inactive); in assay [16], > 100 µM (inactive); in assay [17], 44.2 µM (inactive).
As for `CCOc1ccc2nc3cc(/N=N/c4ccc(N)nc4N)ccc3c(N)c2c1`, the GI50 in assay [1] is 1.46 µM (inactive); in [2], 13.4 µM (inactive); in assay [3], 3.5 µM (inactive); in assay [4], 1.79 µM (inactive); in [5] it was 21.3 µM (inactive); in assay [6], > 88.1 µM (inactive). Further, the GI50 was 37.8 µM in assay [7]; 21.1 µM (inactive) in assay [8]; 0.578 µM (active) in assay [9]; 0.299 µM (active) in [10]; 1.54 µM (inactive) in [11]; 14.8 µM (inactive) in [12]. Further, the GI50 in [13] is 20 µM (inactive); in [14], 2.73 µM (inactive); in assay [15] it was 2.51 µM (inactive); in [16], 1.46 µM (inactive); in [17], 3.13 µM (inactive).
With `CC(C)C1=CCC2C(=C1)CCC1C(C)(C(=O)O)CCCC21C` (centres undefined), the GI50 in assay [1] was 63.1 µM (inactive); in assay [2], > 100 µM (inactive); in assay [3] it was 78.5 µM (inactive); in assay [4] it was > 100 µM (inactive); in assay [6], 76.2 µM (inactive); in assay [7] it was above 100 µM. Moreover, the GI50 in assay [8] was > 100 µM (inactive); in assay [9] it was > 100 µM (inactive); in assay [11], > 100 µM (inactive); in assay [12] it was > 100 µM (inactive); in assay [13] it was 19.9 µM (inactive); in assay [14], > 100 µM (inactive). For the same compound, the GI50 in assay [15], in [16] and in assay [17] was > 100 µM (inactive) throughout.
Consider `O=[N+]([O-])C(=C(NCc1ccccc1)NCc1ccccc1)C(Cl)=C(Cl)Cl`, for which the GI50 is 23.1 µM (inactive) in [1]; 34.4 µM (inactive) in assay [2]; 39.5 µM (inactive) in assay [3]; 40.6 µM (inactive) in [4]; 37.5 µM (inactive) in assay [5]; 45.1 µM (inactive) in assay [6]. The GI50 in assay [7] was 23.3 µM; in assay [10] it was 22.3 µM (inactive); in assay [11], 29.4 µM (inactive); in [12] it was 30.9 µM (inactive); in [13] it was 29.9 µM (inactive); in assay [14] it was 36.6 µM (inactive). Further, the GI50 in [15] is 36.9 µM (inactive); in [16], 43.6 µM (inactive); in [17] it was 49.2 µM (inactive).
On to `CCCCCCCCCCCCCCCCOCC(Cl)CP(=O)(O)OP(=O)(O)OCC1OC(n2cnc3c(N)ncnc32)C(O)C1O` (centres undefined), for which the GI50 in assay [1] was > 100 µM (inactive); in assay [2], > 100 µM (inactive); in assay [3] it was > 100 µM (inactive); in assay [4], > 100 µM (inactive); in assay [5], 47.5 µM (inactive); in [6], > 100 µM (inactive). In addition, the GI50 was above 100 µM in assay [7]; > 100 µM (inactive) in assay [8]; 74 µM (inactive) in assay [9]; > 100 µM (inactive) in assay [10]; > 100 µM (inactive) in [11]; > 100 µM (inactive) in assay [12]. For the same compound, the GI50 in assay [14], in assay [15], in assay [16] and in assay [17] was > 100 µM (inactive) in each case.
